Assay results: US7109193B2, “Tricyclic diazepines tocolytic oxytocin receptor antagonists” (Wyeth, priority 2001, dated 2006)

Target: T1, human vasopressin V2 receptor subtype (Homo sapiens, UniProt P30518)
T1 construct: host or cells: CHO cells (pZeoSV vector)
Assay: Vasopressin binding in Chinese Hamster Ovary cell membranes expressing human vasopressin V2 subtype receptors
Settings: CHO cell membranes, [3H]arginine vasopressin; for IC50: values in parentheses; for inhibition at 0.1 µM: 100 nM, values without parentheses
Method in brief: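 Radioligand displacement on membranes from CHO cells stably expressing human V2 receptor, 25 to 50 μg protein/well, in 50 mM Tris-HCl pH 7.4 with MgCl2, BSA and protease inhibitors. [^3H]arginine vasopressin (8 nM working solution) incubated 60 min at room temperature; bound label measured by filtration and scintillation counting.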

T1 sequence (P30518 whole entry): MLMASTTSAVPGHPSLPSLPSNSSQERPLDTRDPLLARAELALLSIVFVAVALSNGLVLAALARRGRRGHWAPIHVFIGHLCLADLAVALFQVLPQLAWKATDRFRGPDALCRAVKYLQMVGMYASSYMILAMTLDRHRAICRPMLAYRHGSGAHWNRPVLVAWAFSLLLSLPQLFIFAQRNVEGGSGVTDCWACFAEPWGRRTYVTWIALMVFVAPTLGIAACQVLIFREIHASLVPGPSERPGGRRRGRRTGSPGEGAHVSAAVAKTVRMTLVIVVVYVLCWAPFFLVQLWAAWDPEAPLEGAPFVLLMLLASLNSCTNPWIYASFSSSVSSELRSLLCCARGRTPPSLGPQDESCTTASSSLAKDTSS

IC50 [nM] | inhibition at 0.1 µM [%] | SMILES
1700 |  | COc1cc(-c2ccccc2C)c(Cl)cc1C(=O)N1Cc2ccc(C(=O)N(C)CCN(C)C)n2Cc2ccccc21 [Example 86, 10-[(6-Chloro-3-methoxy-2′-methyl[1,1′-biphenyl]-4-yl)carbonyl]-N-[2-(dimethylamino)ethyl]-N-methyl-10,11-dihydro-5H-pyrrolo[2,1-c][1,4]benzodiazepine-3-carboxamide]
 | 30 | COc1ccccc1-c1ccc(C(=O)N2Cc3ccc(C(=O)N(C)CCN(C)C)n3Cc3ccccc32)cc1C [Example 88, N-[2-(Dimethylamino)ethyl]-10-[(2′-methoxy-2-methyl[1,1′-biphenyl]-4-yl)carbonyl]-N-methyl-10,11-dihydro-5H-pyrrolo[2,1-c][1,4]benzodiazepine-3-carboxamide]
788 |  | COc1cc(-c2ccccc2C)c(Cl)cc1C(=O)N1Cc2ccc(C(=O)N3CCC(N4CCCCC4)CC3)n2Cc2ccccc21 [Example 110, {10-[(6-Chloro-3-methoxy-2′-methyl[1,1′-biphenyl]-4-yl)carbonyl]-10,11-dihydro-5H-pyrrolo[2,1-c][1,4]benzodiazepin-3-yl}[4-(1-piperidinyl)-1-piperidinyl]methanone]
 | 34 | COc1cc(C(=O)N2Cc3ccc(C(=O)N(C)CCCN(C)C)n3Cc3ccccc32)ccc1-c1cccc2ccccc12 [Example 106, N-[3-(Dimethylamino)propyl]-10-[3-methoxy-4-(1-naphthyl)benzoyl]-N-methyl-10,11-dihydro-5H-pyrrolo[2,1-c][1,4]benzodiazepine-3-carboxamide]
58.8 |  | O=C(c1ccc(-c2cccc3ccccc23)nc1)N1Cc2cccn2Cc2ccccc21 [Example 28, [6-(Naphthalen-1-yl)-pyridin-3-yl]-[10,11-dihydro-5H-pyrrolo[2,1-c][1,4]benzodiazepin-10-yl]methanone]
3130 |  | Cc1cc(C(=O)N2Cc3ccc(C(=O)N(C)CCN(C)C)n3Cc3ccccc32)ccc1-c1ccccc1C(F)(F)F [Example 85, N-[2-(Dimethylamino)ethyl]-N-methyl-10-{[2-methyl-2′-(trifluoromethyl)[1,1′-biphenyl]-4-yl]carbonyl}-10,11-dihydro-5H-pyrrolo[2,1-c][1,4]benzodiazepine-3-carboxamide]
601 |  | COc1ccccc1-c1ccc(C(=O)N2Cc3ccc(C(=O)N4CCN(CCN5CCOCC5)CC4)n3Cc3ccccc32)cc1 [Example 207, {10-[(2′-Methoxy[1,1′-biphenyl]-4-yl)carbonyl]-10,11-dihydro-5H-pyrrolo[2,1-c][1,4]benzodiazepin-3-yl}{4-[2-(4-morpholinyl)ethyl]-1-piperazinyl}methanone]
409 |  | COc1cc(-c2ccccc2Cl)c(Cl)cc1C(=O)N1Cc2ccc(C(=O)N(C)C3CCN(C)CC3)n2Cc2ccccc21 [Example 43, 10-[(2′-Chloro-6-chloro-3-methoxy-[1,1′-biphenyl]-4-yl)carbonyl]-N-methyl-N-(1-methylpiperidin-4-yl)-10,11-dihydro-5H-pyrrolo[2,1-c][1,4]benzodiazepine-3-carboxamide]
745 |  | COc1ccccc1-c1ccc(C(=O)N2Cc3ccc(C(=O)N4CCCN(C)CC4)n3Cc3ccccc32)cc1 [Example 61, {10-[(2′-Methoxy[1,1′-biphenyl]-4-yl)carbonyl]-10,11-dihydro-5H-pyrrolo[2,1-c][1,4]benzodiazepin-3-yl}(4-methyl-1,4-diazepan-1-yl)methanone]
2180 |  | COc1cccc(-c2cc(OC)c(C(=O)N3Cc4ccc(C(=O)N(C)CCN(C)C)n4Cc4ccccc43)cc2Cl)c1 [Example 87, 10-[(6-Chloro-3,3′-dimethoxy[1,1′-biphenyl]-4-yl)carbonyl]-N-[2-(dimethylamino)ethyl]-N-methyl-10,11-dihydro-5H-pyrrolo[2,1-c][1,4]benzodiazepine-3-carboxamide]
 | 18 | COc1cc(C(=O)N2Cc3ccc(C(=O)N(C)CCCN(C)C)n3Cc3ccccc32)ccc1-c1ccccc1C [Example 105, N-[3-(Dimethylamino)propyl]-10-[(2-methoxy-2′-methyl[1,1′-biphenyl]-4-yl)carbonyl]-N-methyl-10,11-dihydro-5H-pyrrolo[2,1-c][1,4]benzodiazepine-3-carboxamide]
1820 |  | C=CCN1CCN(C(=O)c2ccc3n2Cc2ccccc2N(C(=O)c2ccc(-c4ccccc4C)c(C)c2)C3)CC1 [Example 220, (4-Allyl-1-piperazinyl){10-[(2,2′-dimethyl[1,1′-biphenyl]-4-yl)carbonyl]-10,11-dihydro-5H -pyrrolo[2,1-c][1,4]benzodiazepin-3-yl}methanone]
4120 |  | COc1cccc(-c2ccc(C(=O)N3Cc4ccc(C(=O)N5CCC[C@H]5CN5CCCC5)n4Cc4ccccc43)cc2C)c1 [Example 263, {10-[(3′-Methoxy-2-methyl[1,1′-biphenyl]-4-yl)carbonyl]-10,11-dihydro-5H-pyrrolo[2,1-c][1,4]benzodiazepin-3-yl}[(2S)-2-(1-pyrrolidinylmethyl)pyrrolidinyl]methanone]
 | 17 | Cc1ccccc1-c1ccc(C(=O)N2Cc3ccc(C(=O)N(C)CCN(C)C)n3Cc3ccccc32)cc1 [Example 91, N-[2-(Dimethylamino)ethyl]-N-methyl-10-[(2′-methyl[1,1′-biphenyl]-4-yl)carbonyl]-10,11-dihydro-5H-pyrrolo[2,1-c][1,4]benzodiazepine-3-carboxamide]
1430 |  | COc1cc(C(=O)N2Cc3ccc(C(=O)N(C)CCN(C)C)n3Cc3ccccc32)ccc1-c1ccccc1C(F)(F)F [Example 22, N-Methyl-[N-(2-dimethylamino)ethyl]-10-{[2-methoxy-2′-trifluoromethyl-[1,1′-biphenyl]-4-yl]carbonyl}-10,11-dihydro-5H-pyrrolo[2,1-c][1,4]benzodiazepine-3-carboxamide]
1470 |  | Cc1cc(C(=O)N2Cc3ccc(C(=O)NC(=N)N)n3Cc3ccccc32)ccc1-c1ccccc1C(F)(F)F [Example 8, N-[(10-{[2-methyl-2′-(trifluoromethyl)[1,1′-biphenyl]-4-yl]carbonyl}-10,11-dihydro-5H-pyrrolo[2,1-c][1,4]benzodiazepin-3-yl)carbonyl]guanidine]
1200 |  | COc1cc(-c2ccccc2C)c(Cl)cc1C(=O)N1Cc2ccc(C(=O)N3CCCN(C)CC3)n2Cc2ccccc21 [Example 60, {10-[(6-Chloro-3-methoxy-2′-methyl[1,1′-biphenyl]-4-yl)carbonyl]-10,11-dihydro-5H-pyrrolo[2,1-c][1,4]benzodiazepin-3-yl}(4-methyl-1,4-diazepan-1-yl)methanone]
 | 18 | COc1cccc(-c2ccc(C(=O)N3Cc4ccc(C(=O)N(C)CCCN(C)C)n4Cc4ccccc43)cc2C)c1 [Example 102, N-[3-(Dimethylamino)propyl]-10-[(3′-methoxy-2-methyl[1,1′-biphenyl]-4-yl)carbonyl]-N-methyl-10,11-dihydro-5H-pyrrolo[2,1-c][1,4]benzodiazepine-3-carboxamide]
1330 |  | COc1cccc(-c2cc(OC)c(C(=O)N3Cc4ccc(C(=O)N(C)CCCN(C)C)n4Cc4ccccc43)cc2Cl)c1 [Example 99, 10-[(6-Chloro-3,3′-dimethoxy[1,1′-biphenyl]-4-yl)carbonyl]-N-[3-(dimethylamino)propyl]-N-methyl-10,11-dihydro-5H-pyrrolo[2,1-c][1,4]benzodiazepine-3-carboxamide]
